Test results published in patent US10538564B2, “Peptides having osteoblast growth-promoting activity and use thereof” (PHARMA FOODS INTERNATIONAL CO., LTD., priority 2014, dated 2020).
No end group written: not given here.

Tests used:
[1] = system: Crlj:W1 male rats at four weeks old; experiment: Mineral apposition rate in secondary cancellous bone, 7-day oral administration; assay type: in vivo, rat; settings: seven days
Method: One of the synthetic peptides (No. 1) or water for injection (control) was administered to Crlj:W1 male rats at four weeks old by oral gavage using a gastric tube once a day for seven days (n=10 in each group). The dose of the synthetic peptide was 1, 10 or 100 mg/kg-day. As a positive control, human growth hormone (hGH) (Norditropin, Standard Commodity Classification No. of Japan: 872412) was subcutaneously administered at 500 μg/kg·day once a day for seven days. As fluorescent labels for the site of bone formation, tetracycline (20 mg/kg) was subcutaneously administered on day 4 after the administration of the peptide or control, and then calcein (10 mg/kg) was subcutaneously administered on day 6 after the administration of the peptide or control. After the administration of the test sample on day 7, the rats were kept under fasting conditions. Twenty-four hours later, the rats were euthanized by bloodletting under anesthesia, and the tibiae were harvested. Non-decalcified specimens of the proximal tibiae were prepared and photographed under a fluorescent microscope (BX-53, OLYMPUS). The bone morphology was measured using a morphometry system (Histometry RT digitizer, System Supply Co., Ltd.) and an analysis software (CSS-840 cancellous bone morphometry version, System Supply Co., Ltd.). The mineral apposition rate (MAR), per day, in the secondary cancellous bone was determined by measuring the distance between the tetracycline label and the calcein label in the secondary cancellous bone, and dividing the distance by the administration interval between the fluorescent labels (two days). […] The increase in the mineral apposition rate in the secondary cancellous bone in the No. 1 administration group would have resulted from the increase in the number of osteoblasts.

[2] = system: Crlj:W1 male rats at four weeks old; experiment: Bone formation in growth cartilage and primary cancellous bone, 7-day oral administration; assay type: in vivo, rat; settings: seven days
Method: One of the synthetic peptides (No. 1) or water for injection (control) was administered to Crlj:W1 male rats at four weeks old by oral gavage using a gastric tube once a day for seven days (n=3 in each group). The dose of the synthetic peptide (No. 1) was 100 mg/kg-day. As a positive control, human growth hormone (hGH) (Norditropin, Standard Commodity Classification No. of Japan: 872412) was subcutaneously administered at 500 μg/kg-day once a day for seven days. As fluorescent labels for the site of bone formation, tetracycline (20 mg/kg) was subcutaneously administered on day 4 after the administration of the peptide or control, and then calcein (10 mg/kg) was subcutaneously administered on day 6 after the administration of the peptide or control. After the administration of the test sample on day 7, the rats were kept under fasting conditions. Twenty-four hours later, the blood was collected. The rats were then euthanized by bloodletting under anesthesia, and the tibiae were harvested (see FIG. 16). Non-decalcified specimens of the proximal tibiae were prepared and photographed under a fluorescent microscope (BX-53, OLYMPUS). The bone morphology was measured using a morphometry system (Histometry RT digitizer, System Supply Co., Ltd.) and an analysis software (CSS-840 cancellous bone morphometry version, System Supply Co., Ltd.). The longitudinal growth rate (Lo.G.R.) in the growth cartilage, which is the increase in the height per day, was determined by measuring the distance between the tetracycline label and the calcein label, and dividing the distance by the administration interval between the fluorescent labels (two days).
The increase in the level of IGF-1, which is related to growth of the bones and muscles in a growth phase, may contribute to the bone growth-promoting effect.

[3] = system: ovariectomized (OVX) female rats; experiment: Postmenopausal osteoporosis model of ovariectomized rats; assay type: in vivo, rat; settings: for bone density compared with sham operation group / volume of the cancellous bone compared with sham operation group: six months
Method: Female rats (eight months old, ten rats in each group) underwent ovariectomy (OVX), and synthetic peptide No. 1 was administered to the rats by oral gavage using a gastric tube once a day from the first postoperative day for six months. The dose of the synthetic peptide was 1, 10 or 100 mg/kg·day.

[4] = system: mouse osteoblast-like cell line MC3T3-E1 Subclone-4; experiment: Osteoblast growth-promoting activity (cell counting method); assay type: cell-based; settings: synthetic peptides at 2.5, 5 or 10 μg/mL; 72 hours; relative to PBS (−) group taken as 100; FIGS. 9 to 12
Method: A mouse osteoblast-like cell line MC3T3-E1 Subclone-4 (ATCC No. CRL-2593) was cultured in α-MEM medium supplemented with 10% FBS at 5% CO2 and 95% air at 37° C. until confluent. The cells were collected by trypsinization. The collected cells were suspended at 1×10^4 cells/mL in fresh α-MEM medium. One mL of the cell suspension was seeded in each well of a 24-well plate, and precultured at 5% CO2 and 95% air at 37° C. On the next day, the medium was replaced with medium prepared by well mixing 50 μL of a sample or PBS (−) with 950 μL of fresh α-MEM medium supplemented with CaCl2 to a Ca concentration of 500 μg/mL. The cells were further cultured for 72 hours. The growth activity of osteoblasts was measured by the cell counting method. The activity of the sample for promoting the growth of osteoblasts was expressed in terms of the relative value, with the growth rate in the PBS (−) group taken as 100. Osteoblast growth-promoting activity was determined for the synthetic peptides in the same manner as in Example 1. The synthetic peptides were added at 2.5, 5 or 10 μg/mL per well. As a control, PBS (−) was added. The osteoblast growth-promoting activity was expressed in terms of the relative value, with the growth rate in the PBS (−) group taken as 100.

[5] = oral 1, 10 or 100 mg/kg·day for six months
[6] = oral 1, 10 or 100 mg/kg·day for six months, significant vs OVX-control group

Sequence: VNPESEEE [No. 1]
- mineral apposition rate (MAR) in the secondary cancellous bone, vs control group ([1]; No. 1 oral 1, 10 or 100 mg/kg-day, hGH 500 μg/kg·day subcutaneous, FIG. 26): significant increase in the mineral apposition rate
- osteoblast surface/bone surface (Ob.S/BS) ([1]; oral 1, 10 or 100 mg/kg-day, FIG. 27): high percentage
- number of osteoblasts/tissue volume (N.Ob/TV) ([1]; oral 1, 10 or 100 mg/kg-day, FIG. 28): high number of osteoblasts
- bone formation rate/bone surface (BFR/BS) ([1]; oral 1, 10 or 100 mg/kg-day, FIG. 29): high rates
- bone formation rate/bone surface (BFR/BS), vs control group ([1]; oral dose of 10 mg/kg-day or more): significant increase in the bone formation rate
- mineral apposition rate (MAR) in the secondary cancellous bone, vs hGH administration group ([1]; oral dose of 10 mg/kg·day or more, FIG. 26): significant increase in the mineral apposition rate at a dose of 10 mg/kg·day or more as compared with the hGH administration group
- serum level of insulin-like growth factor (IGF-1) ([2]; No. 1 oral 100 mg/kg-day, hGH 500 μg/kg-day subcutaneous, ELISA, FIG. 19): higher than that in the control group
- longitudinal growth rate (Lo.G.R.) in the growth cartilage, vs control group ([2]; No. 1 oral 100 mg/kg-day, hGH 500 μg/kg-day subcutaneous, FIG. 17): significant promotion of bone growth as compared with the control group
- longitudinal growth rate (Lo.G.R.) in the growth cartilage, vs hGH administration group ([2]; oral 100 mg/kg-day, FIG. 17): significant as compared with the hGH administration group
- incorporation of the fluorescent labels into the primary cancellous bone ([2]; oral 100 mg/kg-day, vs control group and hGH group, FIG. 18): high frequency of incorporation of the fluorescent labels into the primary cancellous bone
- bone density compared with sham operation group ([3]; high-dose 100 mg/kg·day oral): equal or higher bone density as compared with the sham operation group
- volume of the cancellous bone compared with sham operation group ([3]; high-dose 100 mg/kg·day oral): equal or higher volume of the cancellous bone as compared with the sham operation group
- bone density compared with sham operation group ([3]; medium-dose 10 mg/kg·day oral): equal or higher bone density as compared with the sham operation group
- volume of the cancellous bone compared with sham operation group ([3]; medium-dose 10 mg/kg·day oral): equal or higher volume of the cancellous bone as compared with the sham operation group
- OVX-induced increase in the trabecular separation [3, 5]: tended to be inhibited
- OVX-induced reduction in the trabecular numbers [3, 5]: tended to be inhibited
- OVX-induced reduction in the trabecular width [3, 5]: tended to be inhibited
- bone density of the distal femoral metaphysis [3, 6]: increase in the bone density of the distal femoral metaphysis in a manner consistent with the increase in the dose of the synthetic peptide
- cancellous bone volume in the proximal tibial metaphysis [3, 6]: increased in the OVX-synthetic peptide administration group in a manner consistent with the increase in the dose
- osteoblast growth-promoting activity [4]: promoted the growth of osteoblasts in a concentration-dependent manner
